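Growth conditions: 96-well plates. Treatment: test compound, 48 hours, 5 concentrations. Analysis: linear interpolation between bracketing concentrations; unreached endpoints set to highest concentration. At the GI50, growth is halved. At the TGI there is no net growth.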

Holding throughout (experiment): NCI tumour cell line growth inhibition, 48 h
Assay [1] has as its system KM20L2 colon.
Assay [2] deals with DMS 114 small cell lung.
The test system of assay [3] is LXFL 529 NSCLC.
Assay [4] relates to DMS 273 small cell lung.
Assay [5] relates to HOP-18 NSCLC.
Assay [6] has as its system XF 498 CNS.
Assay [7] relates to MDA-MB-435.
Assay [8] concerns MDA-N.

For `Oc1ccc(Br)cc1C=Nc1ccc(N=Cc2cc(Br)ccc2O)cc1`, the TGI in assay [1] and in assay [2] was over 100 µM in each case.

`COC(=O)/C(=C\c1ccc(N(CCC#N)CCC#N)cc1)NC(=O)c1cc([N+](=O)[O-])ccc1Cl`: the TGI in assay [1], in assay [3], in assay [2], in assay [4] and in assay [5] was over 100 µM each time.

In the case of `O=c1c2ccccc2nc(-c2ccccc2)n1NC(=S)Nc1ccccc1`, the TGI in assay [3] was over 100 µM; in assay [2], 73.7 µM; in assay [4], over 100 µM; in assay [5] it was over 100 µM.

`OCCNCCOc1ccc(/C(=C(/Cl)c2ccccc2)c2ccccc2)cc1`: the TGI in assay [1] is 8.56 µM; in assay [3], 19.7 µM; in assay [2] it was 29.6 µM; in assay [6], 18.2 µM; in assay [5] it was 33.4 µM.

As for `O=C(N/N=C/c1ccc([N+](=O)[O-])o1)c1ccc(O)cc1`, in assay [7], the GI50 was 1.65 µM and the TGI amounted to 3.19 µM.

With `COc1ccc(/C=C(/c2ccccc2)[N+](=O)[O-])cc1`, in assay [7], the GI50 was 1.3 µM and the TGI came out at 2.69 µM.

Take `COC1=C(Br)C(=O)c2nc(C)ccc2C1=O`: the TGI in assay [1] came to 33.3 µM; in assay [3], 16.7 µM; in assay [2] it was 31.6 µM; in assay [4], 31.8 µM; in assay [5], 30.9 µM.

For `COC(=O)c1cc(/C=C/c2ccc(S(N)(=O)=O)cc2)ccc1O`, in assay [7], the GI50 was 35.6 µM and the TGI is over 100 µM.

With `O=S1(=O)OCCOS(=O)(=O)C1Cl`, the TGI in assay [3], in assay [2], in assay [4] and in assay [5] was over 100 µM throughout.

Turning to `CC1CN1c1c(C(=O)/C=C/c2ccc(Cl)cc2)c(-c2ccccc2)nn(C)c1=O` (stereo not given), the TGI was over 10 µM in assay [1]; 5.13 µM in assay [3]; over 10 µM in assay [2]; 6.29 µM in assay [4]; 5.5 µM in assay [6]; over 10 µM in assay [5].

Regarding `O=C(CSC(c1ccccc1)c1ccccc1)N/N=C/c1ccco1`, in assay [7], the GI50 was 2.01 µM and the TGI came to 11.5 µM.

Take `CCCCCc1ccc(S(=O)(=O)Nc2cc(-c3csc(NC(C)=O)n3)ccc2N2CCN(C)CC2)cc1`: in assay [7], the GI50 is 4.85 µM and the TGI amounted to 9.5 µM.

Regarding `CC(=O)OC1C2CCC1C1C2C2(Cl)C(Cl)=C(Cl)C1(Cl)C2(Cl)Cl` (stereo not given), the TGI in assay [1] came to 22.9 µM; in assay [3], 33.9 µM; in assay [2], 26.7 µM; in assay [4] it was 25.4 µM; in assay [6], 23.1 µM; in assay [5], 33.8 µM.

Regarding `Cc1cc(C)n(-c2nnc3n2N=C(c2ccc(-c4ccccc4)cc2)CS3)n1`, in assay [7], the GI50 is 1.71 µM and the TGI is 4.46 µM.

For the compound `Nc1ccccc1SC1CC(=O)N(c2ccc(Cl)c(Cl)c2)C1=O` (stereo not given), in assay [7], the GI50 was 26.1 µM and the TGI was over 100 µM.

As to `CCCCCCCCCCN1CCC(N2CCCCC2)CC1`, in assay [7], the GI50 was 1.47 µM and the TGI stood at 3.55 µM.

As for `S=C1SC2=Nc3ccccc3CN2C2=NCCN12`, in assay [7], the GI50 is over 100 µM and the TGI was over 100 µM.

For the compound `C/C(=N\NC(=S)N1CC2CCC(CC2)C1)c1ccccn1`, in assay [7], the GI50 was 0.141 µM and the TGI amounted to 1.64 µM.

Regarding `O=C(NCc1ccc(S(=O)(=O)c2cc(F)cc(F)c2)cc1)c1ccc2nccn2c1`, in assay [7], the GI50 was 0.0508 µM and the TGI was over 100 µM.

On to `COC(C(=O)[C@@H](O)[C@@H](C)O)[C@@H]1Cc2cc3cc(O[C@H]4C[C@@H](O[C@H]5C[C@@H](O)[C@H](O)C(C)O5)[C@H](O)C(C)O4)c(C)c(O)c3c(O)c2C(=O)[C@H]1O[C@H]1C[C@@H](O[C@H]2C[C@@H](O[C@H]3C[C@@H](O)[C@H](OC)C(C)O3)[C@@H](O)C(C)O2)[C@H](O)C(C)O1` (stereo not given in full), for which, in assay [7], the GI50 was 0.0219 µM and the TGI is 0.197 µM.

`O=C(OCC(OC(=O)c1ccccc1)C(OC(=O)c1ccccc1)C(OC(=O)c1ccccc1)c1cnn(-c2ccccc2)n1)c1ccccc1` (stereo not given): the TGI in assay [7] and in assay [8] was over 100 µM throughout.

With `Cc1ccc(S(=O)(=O)NC(=O)NC2=NC(C)(C)N(c3ccc(Cl)c(Cl)c3)C(N)=N2)cc1`, the TGI in assay [8] was over 100 µM.

As to `O=C1C(Cl)=C(Nc2ccccc2O)C(=O)N1Cc1ccccc1`, in assay [7], the GI50 is 19.7 µM and the TGI was found to be 37.4 µM.

Turning to `Cn1cc(-c2ccc(-c3cncc(Cl)c3N3CCC4(CCNC4=O)CC3)cc2)cn1`, in assay [7], the GI50 is 38.7 µM and the TGI is over 100 µM.

As for `N#Cc1ccc(OC(=O)Nc2ccc(Cl)c(Cl)c2)cc1`, in assay [7], the GI50 is 3.17 µM and the TGI turned out to be 22.4 µM.

As for `N.N.NCCCCCCCCCN.O=C([O-])CC(=O)[O-].O=C([O-])CC(=O)[O-].[Pt+4].[Pt+4]`, the GI50 in assay [1], in assay [3], in assay [4] and in assay [5] was over 100 µM in each case. Also, the TGI in assay [1], in assay [3], in assay [4] and in assay [5] was over 100 µM each time.

With `CC/C=C/C/C=C/C/C=C/C/C=C/C/C=C/C/C=C/CCC(=O)Nc1ccn([C@@H]2O[C@H](CO)[C@@H](O)C2(F)F)c(=O)n1`, in assay [7], the GI50 was 0.2 µM and the TGI is 17.5 µM.

With `OCC(O)CNc1ccnc2cc(Cl)ccc12` (stereo not given), the TGI in assay [1], in assay [3], in assay [2], in assay [6] and in assay [5] was over 100 µM in each case.

Regarding `Nc1nc(N)c2cc(CNc3ccc(C(=O)NC(CC(=O)O)C(=O)O)c(Cl)c3)ccc2n1` (stereo not given), the GI50 in assay [7] and in assay [8] was 0.05 µM in each case. The TGI was over 500 µM in assay [7], 0.0214 µM in assay [2] and over 500 µM in assay [8].
